Biological target: T1, Caspase-3 (Homo sapiens, UniProt P42574)
T1 sequence (P42574 whole entry): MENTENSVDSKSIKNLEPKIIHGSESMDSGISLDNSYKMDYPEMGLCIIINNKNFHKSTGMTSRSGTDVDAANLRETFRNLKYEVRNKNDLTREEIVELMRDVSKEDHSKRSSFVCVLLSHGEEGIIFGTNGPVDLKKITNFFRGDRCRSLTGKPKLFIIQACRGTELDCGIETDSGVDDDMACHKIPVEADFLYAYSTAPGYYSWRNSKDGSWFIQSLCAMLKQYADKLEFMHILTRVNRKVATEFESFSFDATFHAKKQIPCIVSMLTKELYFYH
Assay: Inhibitory concentration required against human Caspase-3
Settings: not given

SMILES	IC50
O=C[C@H](CC(=O)O)NC(=O)c1ccncc1	> 200 µM

Tested on: NT2
Assay: Inhibitory concentration required against NT2 cells
Settings: Homo sapiens

SMILES	IC50
CCCN(CCC)S(=O)(=O)c1cncc(C(=O)N[C@@H](CC(=O)O)C(=O)CSCc2ccc(F)cc2)c1	25 µM
CC(C)CN(CC(C)C)C(=O)c1cncc(C(=O)N[C@@H](CC(=O)O)C(=O)CSCc2ccc(F)cc2)c1	39 µM
CC(=O)N[C@@H](CC(=O)O)C(=O)N[C@@H](CCC(=O)O)C(=O)N[C@H](C(=O)N[C@H](C=O)CC(=O)O)C(C)C	> 100 µM
O=C(O)C[C@H](NC(=O)c1cncc(S(=O)(=O)NCc2ccccc2)c1)C(=O)CSCc1ccc(F)cc1	59 µM
O=C[C@H](CC(=O)O)NC(=O)c1cncc(S(=O)(=O)NC2CC2)c1	57 µM
CCN(CC)C(=O)c1cncc(C(=O)N[C@@H](CC(=O)O)C(=O)CSCc2ccc(F)cc2)c1	> 100 µM
CCCN(CCC)C(=O)c1cncc(C(=O)N[C@@H](CC(=O)O)C(=O)CSCc2ccc(F)cc2)c1	> 100 µM
O=C(O)C[C@H](NC(=O)c1cncc(S(=O)(=O)NC2CC2)c1)C(=O)CNCc1c(F)cccc1F	53 µM

Second part, the molecule after the results:

IC50	SMILES
4.3 µM	O=C(O)C[C@H](NC(=O)c1cncc(S(=O)(=O)NC2CC2)c1)C(=O)Oc1ccccc1
22 µM	CN(C1CC1)S(=O)(=O)c1cncc(C(=O)N[C@@H](CC(=O)O)C(=O)CSCc2ccc(F)cc2)c1
16 µM	CCN(C(=O)c1cncc(C(=O)N[C@@H](CC(=O)O)C(=O)CSCc2ccc(F)cc2)c1)C(C)C
21 µM	CN(C)S(=O)(=O)c1cncc(C(=O)N[C@@H](CC(=O)O)C(=O)CSCc2ccc(F)cc2)c1
8 µM	O=C(O)C[C@H](NC(=O)c1cncc(S(=O)(=O)NC2CC2)c1)C(=O)CSCc1ccc(F)cc1
12 µM	CCN(CC)S(=O)(=O)c1cncc(C(=O)N[C@@H](CC(=O)O)C(=O)CSCc2ccc(F)cc2)c1
1.3 µM	O=C(O)C[C@H](NC(=O)c1cncc(S(=O)(=O)NC2CC2)c1)C(=O)COC(=O)c1cccc2ccccc12

From ChEMBL document CHEMBL1136077, “Nicotinyl aspartyl ketones as inhibitors of caspase-3” (Bioorg Med Chem Lett, 2003)
